Test results as given in ChEMBL document CHEMBL5614413, “Design, synthesis and biological evaluation of amphiphilic benzopyran derivatives as potent antibacterial agents against multidrug-resistant bacteria” (Eur J Med Chem, 2024).
≈ marks a conversion by molar mass, not a printed value. Calls of active or inactive are those of the source. The calls are words filed in the database; no cut-off is given here.

Tests used:
Staphylococcus aureus [1] = assay: (§1) Antibacterial activity against methicillin-resistant Staphylococcus aureus ATCC 43300 infected in sepsis mouse model assessed as decrease in TNF-alpha level in blood at 5 mg/kg pre-infected with bacteria for 1 hrs followed by continuous compound administration at 12 hrs intervals for 2 days; type: functional, organism-based; settings: time 2.0 day
Staphylococcus aureus [2] = assay: as §1, with “reduction” for “decrease”, “bacterial load” for “TNF-alpha level”, “kidney” for “blood”, “days (reference value: 6.75 log10CFU/g)” for “days”; type: functional; settings: time 2 day
Staphylococcus aureus [3] = assay: as §1, with “reduction” for “decrease”, “bacterial load” for “TNF-alpha level”, “days (reference value: 3.69 log10CFU/ml)” for “days”; type: functional; settings: time 2 day
Escherichia coli = assay: Antibacterial activity against penicillin-susceptible Escherichia coli ATCC 25922; type: functional
Staphylococcus aureus [4] = assay: as §1, with “reduction” for “decrease”, “pathological damages” for “TNF-alpha level”, “liver” for “blood”, “days by H and E staining based analysis” for “days”; type: functional, organism-based; settings: time 2.0 day
Pseudomonas aeruginosa = assay: Antibacterial activity against penicillin-susceptible Pseudomonas aeruginosa ATCC 27853; type: functional
Klebsiella pneumoniae = assay: Antibacterial activity against Klebsiella pneumoniae ATCC 10031; type: functional
Staphylococcus aureus [5] = assay: as §1, with “reduction” for “decrease”, “number of surviving bacterial colonies” for “TNF-alpha level”, “liver” for “blood”, “days relative to control” for “days”; type: functional; settings: time 2 day
Staphylococcus aureus [6] = assay: as §1, with “reduction” for “decrease”, “pathological damages” for “TNF-alpha level”, “kidney” for “blood”, “days by H and E staining based analysis” for “days”; type: functional, organism-based; settings: time 2.0 day
Acinetobacter baumannii = assay: Antibacterial activity against Acinetobacter baumannii ATCC 19606; type: functional
Enterococcus faecalis = assay: Antibacterial activity against vancomycin-susceptible Enterococcus faecalis ATCC 29212; type: functional
Staphylococcus aureus [7] = assay: as §1, with “reduction” for “decrease”, “number of surviving bacterial colonies” for “TNF-alpha level”, “spleen” for “blood”, “days relative to control” for “days”; type: functional; settings: time 2 day
Staphylococcus aureus [8] = assay: as §1, with “reduction” for “decrease”, “pathological damages” for “TNF-alpha level”, “spleen” for “blood”, “days by H and E staining based analysis” for “days”; type: functional, organism-based; settings: time 2.0 day
Staphylococcus aureus [9] = assay: as §1, with “reduction” for “decrease”, “bacterial load” for “TNF-alpha level”, “spleen” for “blood”, “days (reference value: 7.45 log10CFU/g)” for “days”; type: functional; settings: time 2 day
Bacillus subtilis = assay: Antibacterial activity against penicillin-susceptible Bacillus subtilis ATCC 9372; type: functional
Staphylococcus aureus [10] = assay: as §1, with “reduction” for “decrease”, “bacterial load” for “TNF-alpha level”, “liver” for “blood”, “days (reference value: 7.16 log10CFU/g)” for “days”; type: functional; settings: time 2 day
Staphylococcus aureus [11] = assay: as §1, with “reduction” for “decrease”, “number of surviving bacterial colonies” for “TNF-alpha level”, “kidney” for “blood”, “days relative to control” for “days”; type: functional; settings: time 2 day
Staphylococcus aureus [12] = assay: as §1, with “reduction” for “decrease”, “number of surviving bacterial colonies” for “TNF-alpha level”, “days relative to control” for “days”; type: functional; settings: time 2 day
Staphylococcus aureus [13] = assay: Antibacterial activity against methicillin-resistant Staphylococcus aureus ATCC 43300 infected in sepsis mouse model assessed as decrease in IL-6 level in blood at 5 mg/kg pre-infected with bacteria for 1 hrs followed by continuous compound administration at 12 hrs intervals for 2 days; type: functional, organism-based; settings: time 2.0 day

CN[C@H](CC(C)C)C(=O)N[C@H]1C(=O)N[C@@H](CC(N)=O)C(=O)N[C@H]2C(=O)N[C@H]3C(=O)N[C@H](C(=O)N[C@H](C(=O)O)c4cc(O)cc(O)c4-c4cc3ccc4O)[C@H](O)c3ccc(c(Cl)c3)Oc3cc2cc(c3O[C@@H]2O[C@H](CO)[C@@H](O)[C@H](O)[C@H]2O[C@H]2C[C@](C)(N)[C@H](O)[C@H](C)O2)Oc2ccc(cc2Cl)[C@H]1O [VANCOMYCIN]
Activity (Staphylococcus aureus [1]): Active
Activity (Staphylococcus aureus [2]): 2.73 log10CFU/g
Activity (Staphylococcus aureus [3]): 1.5 log10CFU/ml
MIC (Escherichia coli): 128 µg/mL (≈ 88.3 µM)
Activity (Staphylococcus aureus [4]): Active
MIC (Pseudomonas aeruginosa): > 128 µg/mL
MIC (Klebsiella pneumoniae): 128 µg/mL (≈ 88.3 µM)
Activity (Staphylococcus aureus [5]): 99.8%
Activity (Staphylococcus aureus [6]): Active
MIC (Acinetobacter baumannii): 16 µg/mL (≈ 11 µM)
MIC (Enterococcus faecalis): 2 µg/mL (≈ 1.38 µM)
Activity (Staphylococcus aureus [7]): 99.6%
Activity (Staphylococcus aureus [8]): Active
Activity (Staphylococcus aureus [9]): 2.33 log10CFU/g
MIC (Bacillus subtilis): 0.5 µg/mL (≈ 0.345 µM)
Activity (Staphylococcus aureus [10]): 2.7 log10CFU/g
Activity (Staphylococcus aureus [11]): 99.8%
Activity (Staphylococcus aureus [12]): 96.5%
Activity (Staphylococcus aureus [13]): Active
